# Results reported in patent US10071957B2, “N-substituted benzamides and methods of use thereof” (GENENTECH, INC., priority 2012, dated 2018).
# pIC50: −log10 of the molar value.
# Target: hNaV1.7 (Homo sapiens (Human), UniProt Q15858)
# Test: Competitive binding of tritiated compound to membranes from cells expressing hNav1.7 and the β1 subunit
# Details: 100 pM [3H]compound, 18 h, room temperature; read-out: NaV1.7 395 Membrane Binding IC50
# Description: Tritiated compound binding to membranes isolated from cells that heterologously express hNav1.7 and the β1 subunit
# Preparation of membranes containing recombinantly expressed sodium channels: Frozen recombinant cell pellets were thawed on ice and diluted to 4 times the cell pellet weight with ice cold 50 mM Tris HCl, pH 7.4 buffer. The cell suspensions were homogenized on ice using a motorized glass dounce homogeniser. Homogenates were further diluted 8.4 times with ice cold 50 mM Tris HCl, pH 7.4 buffer and then centrifuged at 200×g at 4° C. for 15 min. The supernatants were collected and centrifuged at 10000×g at 4° C. for 50 min. The pellets were then re-suspended in 100 mM NaCl, 20 mM Tris HCl, pH 7.4 buffer containing 1% v/v protease inhibitors (Calbiochem) and re-homogenized on ice. The homogenized membranes were then processed through a syringe equipped with a 26 gauge needle. Protein concentrations were determined by Bradford Assay and the membranes were stored at −80° C.
# Radioligand Binding Studies: Saturation experiments. A representative compound of formula (I) was tritiated. Three tritiums were incorporated in place of methyl hydrogens to generate [^3H]compound. Binding of this radioligand was performed in 5 mL borosilicate glass test tubes at room temperature. Binding was initiated by adding membranes to increasing concentrations of [^3H]compound in 100 mM NaCl, 20 mM Tris HCl, pH 7.4 buffer containing 0.01% w/v bovine serum albumin (BSA) for 18 h. Non-specific binding was determined in the presence of 1 μM unlabelled compound. After 18 h, the reactants were filtered through GF/C glass fiber filters presoaked in 0.5% w/v polyethylene imine. Filters were washed with 15 mL ice cold 100 mM NaCl, 20 mM Tris HCl, pH 7.4 buffer containing 0.25% BSA to separate bound from free ligand. [^3H]compound bound to filters was quantified by liquid scintillation counting.
# Competitive binding experiments. Binding reactions were performed in 96-well polypropylene plates at room temperature for 18 h. In 360 μL, membranes were incubated with 100 pM [^3H]compound and increasing concentrations of Test Compound. Non-specific binding was defined in the presence of 1 μM unlabelled compound. Reactions were transferred and filtered through 96-well glass fiber/C filter plates presoaked with 0.5% polyethylene imine. The filtered reactions were washed 5 times with 200 μL ice cold buffer containing 0.25% BSA. Bound radioactivity was determined by liquid scintillation counting.
# Data Analysis: For saturation experiments, non-specific binding was subtracted from total binding to provide specific binding and these values were recalculated in terms of pmol ligand bound per mg protein. Saturation curves were constructed and dissociation constants were calculated using the single site ligand binding model: Beq=(Bmax*X)/(X+Kd), where Beq is the amount of ligand bound at equilibrium, Bmax is the maximum receptor density, Kd is the dissociation constant for the ligand, and X is the free ligand concentration. For competition studies percent inhibition was determined and IC50 values were calculated using a 4 parameter logistic model (% inhibition=(A+((B−A)/(1+((x/C)^D)))) using XLfit, where A and B are the maximal and minimum inhibition respectively, C is the IC50 concentration and D is the (Hill) slope.
# Sequence of hNaV1.7 (Q15858 whole entry, looked up): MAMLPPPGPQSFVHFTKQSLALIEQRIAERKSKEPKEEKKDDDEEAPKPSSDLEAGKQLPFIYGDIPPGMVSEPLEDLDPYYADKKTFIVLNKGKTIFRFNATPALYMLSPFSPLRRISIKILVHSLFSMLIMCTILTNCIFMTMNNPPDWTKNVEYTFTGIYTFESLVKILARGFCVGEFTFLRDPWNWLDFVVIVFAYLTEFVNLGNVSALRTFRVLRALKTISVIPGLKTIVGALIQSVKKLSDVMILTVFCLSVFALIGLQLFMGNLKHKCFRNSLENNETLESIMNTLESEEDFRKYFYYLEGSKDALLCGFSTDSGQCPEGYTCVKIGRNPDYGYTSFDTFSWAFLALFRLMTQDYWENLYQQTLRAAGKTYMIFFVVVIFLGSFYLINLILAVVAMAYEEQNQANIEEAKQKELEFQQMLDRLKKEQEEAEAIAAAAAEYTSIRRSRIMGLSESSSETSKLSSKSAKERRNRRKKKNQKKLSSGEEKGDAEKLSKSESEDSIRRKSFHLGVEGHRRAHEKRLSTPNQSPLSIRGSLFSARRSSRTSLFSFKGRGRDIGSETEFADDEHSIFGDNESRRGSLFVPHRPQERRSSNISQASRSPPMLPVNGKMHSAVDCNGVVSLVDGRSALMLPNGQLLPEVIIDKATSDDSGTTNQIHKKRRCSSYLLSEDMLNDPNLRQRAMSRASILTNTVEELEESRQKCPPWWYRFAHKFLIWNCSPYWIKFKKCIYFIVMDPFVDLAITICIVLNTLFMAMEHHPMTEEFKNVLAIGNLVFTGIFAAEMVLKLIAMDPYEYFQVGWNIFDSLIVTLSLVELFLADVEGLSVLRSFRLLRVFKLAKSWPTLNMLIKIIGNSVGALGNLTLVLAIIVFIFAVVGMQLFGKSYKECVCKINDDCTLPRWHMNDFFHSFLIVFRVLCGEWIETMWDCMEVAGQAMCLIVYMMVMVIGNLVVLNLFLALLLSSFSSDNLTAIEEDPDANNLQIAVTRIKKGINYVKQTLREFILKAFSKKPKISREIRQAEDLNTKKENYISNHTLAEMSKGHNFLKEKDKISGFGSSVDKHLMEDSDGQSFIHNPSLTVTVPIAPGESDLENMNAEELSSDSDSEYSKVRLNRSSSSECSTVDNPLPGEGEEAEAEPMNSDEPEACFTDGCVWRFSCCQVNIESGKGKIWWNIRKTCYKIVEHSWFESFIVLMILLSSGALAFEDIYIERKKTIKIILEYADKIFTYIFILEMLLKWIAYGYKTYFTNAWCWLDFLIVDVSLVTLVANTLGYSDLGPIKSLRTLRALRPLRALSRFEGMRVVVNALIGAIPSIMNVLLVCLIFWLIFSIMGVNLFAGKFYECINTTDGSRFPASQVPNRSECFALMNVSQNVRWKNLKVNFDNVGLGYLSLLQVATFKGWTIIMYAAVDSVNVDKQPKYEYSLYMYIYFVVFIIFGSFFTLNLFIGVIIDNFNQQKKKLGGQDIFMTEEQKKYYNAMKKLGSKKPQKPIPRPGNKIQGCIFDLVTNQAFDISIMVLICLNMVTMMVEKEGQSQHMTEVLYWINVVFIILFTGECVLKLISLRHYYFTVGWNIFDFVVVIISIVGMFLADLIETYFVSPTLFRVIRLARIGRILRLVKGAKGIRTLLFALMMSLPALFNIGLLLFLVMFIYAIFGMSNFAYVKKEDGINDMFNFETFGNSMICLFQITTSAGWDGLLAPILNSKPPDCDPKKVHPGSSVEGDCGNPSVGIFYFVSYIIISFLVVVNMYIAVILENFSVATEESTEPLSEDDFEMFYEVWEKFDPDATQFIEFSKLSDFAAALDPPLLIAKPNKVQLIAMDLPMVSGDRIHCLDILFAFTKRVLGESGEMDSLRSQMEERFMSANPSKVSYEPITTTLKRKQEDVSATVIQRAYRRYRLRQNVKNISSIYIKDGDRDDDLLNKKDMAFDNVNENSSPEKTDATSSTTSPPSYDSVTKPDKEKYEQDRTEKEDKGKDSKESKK
# Sequence of hNaV1.7 (Q07699 whole entry partner, looked up): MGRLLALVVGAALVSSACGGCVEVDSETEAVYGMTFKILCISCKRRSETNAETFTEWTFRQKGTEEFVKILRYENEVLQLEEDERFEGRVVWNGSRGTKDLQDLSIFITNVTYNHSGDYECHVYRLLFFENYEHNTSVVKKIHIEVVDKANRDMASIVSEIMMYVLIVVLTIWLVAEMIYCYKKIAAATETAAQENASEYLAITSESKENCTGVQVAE
row,pIC50,Compound
1,4.64,"NS(=O)(=O)NC(=O)c1cc(Cl)c(Oc2cccc3ccccc23)cc1F [Preparation 53, 5-chloro-2-fluoro-4-(naphthalen-1-yloxy)-N-sulfamoylbenzamide]"
2,7.17,O=C(NS(=O)(=O)N1CCC1)c1cc(Cl)c(COc2cnc(OCC(F)(F)C(F)F)c(Cl)c2)cc1F [Preparation 101]
3,7.37,CNS(=O)(=O)NC(=O)c1ccc(Oc2cnc(OC(C)C)c(Cl)c2)c(-c2cccnc2OC)c1 [Preparation 83]
4,6.77,"NS(=O)(=O)NC(=O)c1cc(Cl)c(Oc2cnc(OCC(F)(F)C(F)F)c(Cl)c2)cc1F [Preparation 37, 5-chloro-4-((5-chloro-6-(2,2,3,3-tetrafluoro-propoxy)pyridin-3-yl)oxy)-2-fluoro-N-sulfamoylbenzamide]"
5,6.67,"CN(C)S(=O)(=O)NC(=O)c1cc(Cl)c(COc2cnc(OCC(F)(F)C(F)F)c(Cl)c2)cc1F [Preparation 39, 5-chloro-4-(((5-chloro-6-(2,2,3,3-tetrafluoro-propoxy)pyridin-3-yl)oxy)methyl)-N-(N,N-dimethyl-sulfamoyl)-2-fluoro-benzamide]"
6,5.89,CC(C)Oc1ncc(Oc2cc(F)c(C(=O)NS(=O)(=O)N3CCC3)cc2C2(O)COC2)cc1Cl [Preparation 89]
7,7.36,CC(C)Oc1ncc(Oc2cc(F)c(C(=O)NS(=O)(=O)N3CCC3)cc2C2(F)COC2)cc1Cl [Preparation 88]
8,7.77,O=C(NS(=O)(=O)N1CCC1)c1cc(Cl)c(COc2ccc(OC(F)(F)F)c(Cl)c2)cc1F [Preparation 79]
9,6.20,"CNS(=O)(=O)NC(=O)c1cc(Cl)c(Oc2cnc(Cl)c(Cl)c2)cc1F [Preparation 38, 5-chloro-4-((5,6-dichloropyridin-3-yl)oxy)-2-fluoro-N-(N-methyl-sulfamoyl)benzamide]"
10,6.02,"O=C(NS(=O)(=O)c1cccnc1)c1cc(Cl)c(Oc2cnc(OCC(F)(F)C(F)F)c(Cl)c2)cc1F [Preparation 69, 5-chloro-4-((5-chloro-6-(2,2,3,3-tetrafluoro-propoxy)pyridin-3-yl)oxy)-2-fluoro-N-(pyridin-3-ylsulfonyl) benzamide]"
11,7.29,O=C(NS(=O)(=O)N1CCC1)c1cc(Cl)c(COc2ccc(Cl)c(Cl)c2)cc1F [Preparation 99]
12,5.72,"Cc1nc2ccc(Oc3cc(F)c(C(=O)NS(=O)(=O)N(C)C)cc3Cl)cc2s1 [Preparation 64, 5-chloro-N-(N,N-dimethylsulfamoyl)-2-fluoro-4-((2-methyl-benzo[d]thiazol-6-yl)oxy)benzamide]"
13,4.96,"Cc1cc(Oc2cc(F)c(C(=O)NS(=O)(=O)N(C)C)cc2Cl)cc(C)c1C#N [Preparation 74, 5-chloro-4-(4-cyano-3,5-dimethylphenoxy)-N-(N,N-dimethyl-sulfamoyl)-2-fluoro-benzamide]"
14,8.05,O=C(NS(=O)(=O)N1CCC1)c1cc(C2CC2)c(COc2ccc(Cl)c(Cl)c2)cc1F [Preparation 98]
15,4.69,O=C(NS(=O)(=O)N1CCC1)c1ccc(Oc2ccc(OC(F)(F)F)c(Cl)c2)c(C2(O)COC2)c1 [Preparation 81]
16,4.70,"CN(C)S(=O)(=O)NC(=O)c1cc(Cl)c(Oc2cccc3[nH]ccc23)cc1F [Preparation 55, 4-((1H-indol-4-yl)oxy)-5-chloro-N-(N,N-dimethyl-sulfamoyl)-2-fluoro-benzamide]"
17,5.00,"CN(C)S(=O)(=O)NC(=O)c1cc(Cl)c(Oc2ccc(C#N)cc2)cc1F [Preparation 43, 5-chloro-4-(4-cyano-phenoxy)-N-(N,N-dimethylsulfamoyl)-2-fluorobenzamide]"
18,6.86,"NS(=O)(=O)NC(=O)c1cc(Cl)c(Oc2ccc3ccccc3c2)cc1F [Preparation 48, 5-chloro-2-fluoro-4-(naphthalen-2-yloxy)-N-sulfamoyl-benzamide]"
19,5.28,"CN(C)S(=O)(=O)NC(=O)c1cc(Cl)c(Oc2cccc3ccccc23)cc1F [Preparation 52, 5-chloro-N-(N,N-dimethylsulfamoyl)-2-fluoro-4-(naphthalen-1-yloxy)benzamide]"
20,6.07,"CN(C)S(=O)(=O)NC(=O)c1cc(F)c(Oc2ccc(OC(F)(F)F)c(Cl)c2)cc1F [Preparation 31, 4-(3-chloro-4-(tri-fluoromethoxy)phenoxy)-N-(N,N-dimethylsulfamoyl)-2,5-difluoro-benzamide]"
21,4.70,"CN(C)S(=O)(=O)NC(=O)c1cc(Cl)c(Oc2cccc3ncccc23)cc1F [Preparation 71, 5-chloro-N-(N,N-dimethylsulfamoyl)-2-fluoro-4-(quinolin-5-yloxy)benzamide]"
22,6.18,"NS(=O)(=O)NC(=O)c1cc(Cl)c(Oc2ccc(F)c(F)c2)cc1F [Preparation 50, 5-chloro-4-(3,4-difluorophenoxy)-2-fluoro-N-sulfamoylbenzamide]"
23,5.39,"CN(C)S(=O)(=O)NC(=O)c1cc(Cl)c(Oc2ccc3ccccc3c2)cc1F [Preparation 47, 5-chloro-N-(N,N-dimethylsulfamoyl)-2-fluoro-4-(naphthalen-2-yloxy)benzamide]"
24,6.47,"CN(C)S(=O)(=O)NC(=O)c1cc(Cl)c(Oc2cc(OC(F)(F)F)ccc2F)cc1F [Preparation 70, 5-chloro-N-(N,N-dimethylsulfamoyl)-2-fluoro-4-(2-fluoro-5-(trifluoromethoxy)phenoxy)benzamide]"
25,6.97,"O=C(NS(=O)(=O)NC1CCC1)c1cc(Cl)c(Oc2ccc(OC(F)(F)F)c(Cl)c2)cc1F [Preparation 45, 5-chloro-4-(3-chloro-4-(trifluoromethoxy)phenoxy)-N-(N-cyclobutylsulfamoyl)-2-fluorobenzamide]"
26,7.80,O=C(NS(=O)(=O)N1CCC1)c1cc(Cl)c(Oc2cnc(OCC(F)(F)F)c(Cl)c2)cc1F [Preparation 93]

row,Compound,pIC50
1,"CC(C)COc1ncc(Oc2cc(F)c(C(=O)NS(=O)(=O)N3CCN(C(=O)OC(C)(C)C)CC3)cc2Cl)cc1Cl [Preparation 41, tert-butyl 4-(N-(5-chloro-4-((5-chloro-6-isobutoxy-pyridin-3-yl)oxy)-2-fluorobenzoyl)sulfamoyl)piperazine-1-carboxylate]",5.42
2,"CC(C)COc1ncc(Oc2cc(F)c(C(=O)NS(=O)(=O)N(C)C)cc2C#N)cc1Cl [Preparation 65, 4-((5-chloro-6-iso-butoxypyridin-3-yl)oxy)-5-cyano-N-(N,N-dimethylsulfamoyl)-2-fluorobenzamide]",7.03
3,"CC(C)COc1ncc(Oc2cc(F)c(C(=O)NS(=O)(=O)NC(=O)OC(C)(C)C)cc2Cl)cc1Cl [Preparation 29, tert-butyl N-(5-chloro-4-((5-chloro-6-isobutoxy-pyridin-3-yl)oxy)-2-fluorobenzoyl) sulfamoylcarbamate]",6.04
4,"CCCCN(CCCC)S(=O)(=O)NC(=O)c1cc(Cl)c(Oc2cnc(OCC(C)C)c(Cl)c2)cc1F [Preparation 13, 5-chloro-4-((5-chloro-6-isobutoxypyridin-3-yl)oxy)-N-(N,N-dibutylsulfamoyl)-2-fluorobenzamide]",5.44
5,"CC(C)COc1ncc(Oc2cc(F)c(C(=O)NS(=O)(=O)N(C)Cc3ccccc3)cc2Cl)cc1Cl [Preparation 19, N-(N-benzyl-N-methylsulfamoyl)-5-chloro-4-((5-chloro-6-isobutoxypyridin-3-yl)oxy)-2-fluoro-benzamide]",5.35
6,"CC(C)COc1ncc(Oc2cc(F)c(C(=O)NS(=O)(=O)NCc3cccnc3)cc2Cl)cc1Cl [Preparation 22, 5-chloro-4-((5-chloro-6-isobutoxypyridin-3-yl)oxy)-2-fluoro-N-(N-(pyridin-3-ylmethyl)sulfamoyl) benzamide 2,2,2-trifluoroacetate]",5.45
7,"CC(C)COc1ncc(Oc2cc(F)c(C(=O)NS(=O)(=O)N3CCC3)cc2Cl)cc1Cl [Preparation 46, N-(azetidin-1-ylsulfonyl)-5-chloro-4-((5-chloro-6-iso-butoxypyridin-3-yl)oxy)-2-fluorobenzamide]",8.04
8,"CC(C)COc1ncc(Oc2cc(F)c(C(=O)NS(N)(=O)=O)cc2C#N)cc1Cl [Preparation 75, 4-((5-chloro-6-iso-butoxypyridin-3-yl)oxy)-5-cyano-2-fluoro-N-sulfamoyl-benzamide]",6.54
